From PubChem BioAssay (NCI)
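GI50: concentration for 50% inhibition of growth. TGI marks complete inhibition of growth.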

Legend:
Assay in all cases: NCI-60 cell line screen, 384-well format
MDA-MB-468 breast = tested on: MDA-MB-468 breast
SNB-75 CNS = tested on: SNB-75 CNS
NCI-H226 lung = tested on: NCI-H226 lung
OVCAR-8 ovarian = tested on: OVCAR-8 ovarian
NCI-H23 lung = tested on: NCI-H23 lung
TK-10 renal = tested on: TK-10 renal
SR leukemia = tested on: SR leukemia
SF-295 CNS = tested on: SF-295 CNS
SF-268 CNS = tested on: SF-268 CNS
UACC-62 melanoma = tested on: UACC-62 melanoma
HOP-92 NSCLC = tested on: HOP-92 NSCLC
PC-3 prostate = tested on: PC-3 prostate
SN12C renal = tested on: SN12C renal
A498 renal = tested on: A498 renal
HL-60(TB) leukemia = tested on: HL-60(TB) leukemia
DU-145 prostate = tested on: DU-145 prostate
UACC-257 melanoma = tested on: UACC-257 melanoma
OVCAR-5 ovarian = tested on: OVCAR-5 ovarian
CAKI-1 renal = tested on: CAKI-1 renal
COLO 205 colon = tested on: COLO 205 colon
MDA-MB-435 melanoma = tested on: MDA-MB-435 melanoma
SK-MEL-28 melanoma = tested on: SK-MEL-28 melanoma
KM12 colon = tested on: KM12 colon
786-0 renal = tested on: 786-0 renal
NCI-H322M lung = tested on: NCI-H322M lung
HOP-62 NSCLC = tested on: HOP-62 NSCLC
BT-549 breast = tested on: BT-549 breast
NCI-H522 lung = tested on: NCI-H522 lung
SF-539 CNS = tested on: SF-539 CNS
MALME-3M melanoma = tested on: MALME-3M melanoma
M14 melanoma = tested on: M14 melanoma
OVCAR-3 ovarian = tested on: OVCAR-3 ovarian
SK-MEL-5 melanoma = tested on: SK-MEL-5 melanoma
SNB-19 CNS = tested on: SNB-19 CNS
MDA-MB-231 breast = tested on: MDA-MB-231 breast
NCI-H460 NSCLC = tested on: NCI-H460 NSCLC
EKVX NSCLC = tested on: EKVX NSCLC
ACHN renal = tested on: ACHN renal
RXF 393 renal = tested on: RXF 393 renal
K-562 leukemia = tested on: K-562 leukemia
SK-MEL-2 melanoma = tested on: SK-MEL-2 melanoma
HS 578T breast = tested on: HS 578T breast
IGROV1 ovarian = tested on: IGROV1 ovarian
HCT-116 colon = tested on: HCT-116 colon
UO-31 renal = tested on: UO-31 renal
T-47D breast = tested on: T-47D breast
U251 glioblastoma = tested on: U251 glioblastoma
MCF7 breast = tested on: MCF7 breast
MOLT-4 leukemia = tested on: MOLT-4 leukemia
OVCAR-4 ovarian = tested on: OVCAR-4 ovarian
A549 NSCLC = tested on: A549 NSCLC
SK-OV-3 ovarian = tested on: SK-OV-3 ovarian
HT29 colon = tested on: HT29 colon
HCT-15 colon = tested on: HCT-15 colon
SW-620 colon = tested on: SW-620 colon

## CCOC(=O)[C@@H](N)CCC(=O)N[C@@H](CSCc1ccccc1)C(=O)N[C@@H](C(=O)OCC)c1ccccc1
MDA-MB-468 breast
  GI50: 5.45 µM
  TGI: 17.2 µM
SNB-75 CNS
  GI50: 12.2 µM
  TGI: 24.7 µM
NCI-H226 lung
  GI50: 11.8 µM
  TGI: 25.6 µM
OVCAR-8 ovarian
  GI50: 10.8 µM
  TGI: 22.8 µM
NCI-H23 lung
  GI50: 16.2 µM
  TGI: 32.5 µM
TK-10 renal
  GI50: 14.5 µM
  TGI: 27.9 µM
SR leukemia
  GI50: 1820 nM
  TGI: 3.43 µM
SF-295 CNS
  GI50: 13.1 µM
  TGI: 26.1 µM
SF-268 CNS
  GI50: 10.5 µM
  TGI: 22.4 µM
UACC-62 melanoma
  GI50: 10.5 µM
  TGI: 22.4 µM
HOP-92 NSCLC
  GI50: 10.4 µM
  TGI: 22.2 µM
PC-3 prostate
  GI50: 14.8 µM
  TGI: 28.1 µM
SN12C renal
  GI50: 15 µM
  TGI: 28.3 µM
A498 renal
  GI50: 11.6 µM
  TGI: 24.1 µM
HL-60(TB) leukemia
  GI50: 18.5 µM
  TGI: 32.6 µM
DU-145 prostate
  GI50: 19.2 µM
  TGI: 45.3 µM
UACC-257 melanoma
  GI50: 16.9 µM
  TGI: 30.6 µM
OVCAR-5 ovarian
  GI50: 32.3 µM
  TGI: > 100 µM
CAKI-1 renal
  GI50: 8.03 µM
  TGI: 20.4 µM
COLO 205 colon
  GI50: 11.5 µM
  TGI: 23.8 µM
MDA-MB-435 melanoma
  GI50: 17.3 µM
  TGI: 31.2 µM
SK-MEL-28 melanoma
  GI50: 16.5 µM
  TGI: 30.1 µM
KM12 colon
  GI50: 6.17 µM
  TGI: 18.5 µM
786-0 renal
  GI50: 12.3 µM
  TGI: 24.8 µM
NCI-H322M lung
  GI50: 18.1 µM
  TGI: 60 µM
HOP-62 NSCLC
  GI50: 9.1 µM
  TGI: 24 µM
BT-549 breast
  GI50: 17.5 µM
  TGI: 31.3 µM
NCI-H522 lung
  GI50: 14.4 µM
  TGI: 27.6 µM
SF-539 CNS
  GI50: 12.5 µM
  TGI: 25.1 µM
MALME-3M melanoma
  GI50: 16.4 µM
  TGI: 30.1 µM
M14 melanoma
  GI50: 16.8 µM
  TGI: 30.4 µM
OVCAR-3 ovarian
  GI50: 13.5 µM
  TGI: 26.4 µM
SK-MEL-5 melanoma
  GI50: 15.3 µM
  TGI: 29 µM
SNB-19 CNS
  GI50: 15.7 µM
  TGI: 30.3 µM
MDA-MB-231 breast
  GI50: 11.9 µM
  TGI: 24.2 µM
NCI-H460 NSCLC
  GI50: 7.59 µM
  TGI: 20.1 µM
EKVX NSCLC
  GI50: 20.4 µM
  TGI: 43.6 µM
ACHN renal
  GI50: 8.55 µM
  TGI: 20.9 µM
RXF 393 renal
  GI50: 10.8 µM
  TGI: 22.7 µM
K-562 leukemia
  GI50: 10.6 µM
  TGI: 22.7 µM
SK-MEL-2 melanoma
  GI50: 15.5 µM
  TGI: 29 µM
HS 578T breast
  GI50: 15.3 µM
  TGI: 28.6 µM
IGROV1 ovarian
  GI50: 13 µM
  TGI: 25.9 µM
HCT-116 colon
  GI50: 5.21 µM
  TGI: 17 µM
UO-31 renal
  GI50: 38.6 µM
  TGI: > 100 µM
T-47D breast
  GI50: 15.5 µM
  TGI: 29 µM
U251 glioblastoma
  GI50: 11.2 µM
  TGI: 23.5 µM
MCF7 breast
  GI50: 5.51 µM
  TGI: 19 µM
MOLT-4 leukemia
  GI50: 2010 nM
  TGI: 3.57 µM
OVCAR-4 ovarian
  GI50: 16 µM
  TGI: 31.4 µM
A549 NSCLC
  GI50: 25.3 µM
  TGI: > 100 µM
SK-OV-3 ovarian
  GI50: 13.9 µM
  TGI: 26.9 µM
HT29 colon
  GI50: 8.24 µM
  TGI: 20.7 µM
HCT-15 colon
  GI50: 20.1 µM
  TGI: 40.8 µM
SW-620 colon
  GI50: 9.33 µM
  TGI: 21.4 µM
